Experimental findings from patent US20250352524A1, “PREVENTION OF METASTATIC OUTGROWTH USING TEAD INHIBITORS” (Georgetown University, priority 2024, published 2025) are described below.

The subject of assay [1] is bone marrow-derived macrophages. Briefly: Cytokine array of conditioned media, bone marrow-derived macrophages. In kind it is cell-based, mouse. The settings on record: 1 μM VT107 for 24 hours. The text has this: Due to the shifts in immune signaling observed in the lung tissue upon TEAD inhibition (FIG. 9), immune cell populations were first analyzed by flow cytometry in the lungs and spleens of tumor naïve mice. Consistent with the Cibersort analysis of RNA-seq data, there was a decrease in the monocytes population and an increase in the tissue-resident alveolar macrophages (AM) (FIG. 10, Panel A). […] Next, it was sought to determine the specific effects of iTEAD treatment on lung resident versus bone-marrow derived macrophages, as the dynamics of these cell populations are crucial for the establishment of the metastatic niche (Ries et al., 2014; Qian et al., 2011). Macrophages were retrieved from the lungs by isolating F4/80+ cells, a specific marker for murine macrophages, by FACS (fluorescence-activated cell sorting) as well as bone marrow-derived macrophages from the femurs of naïve C57BL/6 mice that were then differentiated in vitro using macrophage colony stimulating factor (M-CSF). Macrophages were treated with 1 μM of VT107 for 24 hours before the conditioned media was collected and analyzed on a cytokine array. […] There was no change in the level of the other cytokines detected (FIG. 10, Panel B). […]

Another assay has as its system 4T1 spheres. Briefly: 3D sphere co-culture assay, 4T1 spheres with T-cells and/or macrophages. The assay is classed as cell-based, mouse. The settings on record: for cleaved caspase-3 in 4T1 cells: 24 hours. The protocol: T-cells were isolated from the spleens of naïve mice, activated by CD3/CD28, and treated with either 1 μM iTEAD or vehicle. Peritoneal macrophages were isolated from the peritoneal lavage of naïve mice after attachment on culture dishes and treated with either 1 μM iTEAD or vehicle. The immune cells were mixed with tumor cells that were aggregated into spheres in u-shaped molds for 24 hours (FIG. 7).
To investigate whether the effect of iTEAD treatment on macrophages can enhance their crosstalk with T-cells in the lung microenvironment, peritoneal macrophages+/−iTEAD were first isolated and characterized as a model of resident macrophages for ex vivo experiments (FIG. 14, Panel A). It was observed that treatment with VT107 decreased gene expression of M2-like and fibrosis regulators, Aldh1a1 and Cc117 (Chen et al., 2020), as well as TEAD4 and its downstream target gene Ankrd1. […] The iTEAD pretreated peritoneal macrophages and untreated T-cells isolated from the spleen of tumor naïve mice (FIG. 14, Panel A) were then mixed for 5 hours before collecting the conditioned media for analysis. […] Next, these immune cell mixes were added to 4T1 spheres that were embedded into matrix. […] This effect was reversed by an IL12 neutralizing antibody. No change in cleaved caspase-3 in 4T1 cells in the presence of VT107-treated T-cells or macrophages alone, was detected at 24 hours (FIG. 14, Panels C and D). 4T1 cells were then plated and allowed to attach on electrode-coated arrays to monitor cancer cell viability before the addition of macrophages+/−iTEAD and T-cells. […] This reversal of T-cell cytotoxicity by IL12 antibodies was not observed in VT107-treated T-cells in the absence of macrophages (FIG. 15, Panel E) indicating a critical role for IL12 in the crosstalk between macrophages and T-cells.
The hippo pathway has been implicated in T-cell development and function (Du et al., 2014; Ueda et al., 2012). For example, YAP expression is essential for tumor immune suppression by Treg cells that attenuates CD8 T-cell immunity (Geng et al., 2017; Ni et al., 2018; Lebid et al., 2020). […] To investigate whether VT107 directly affected T-cells, T-cells treated with VT107 were co-cultured with 4T1 cells in 2D for 72 hours. […] To further confirm T-cell activation upon TEAD activity reduction, we used Jurkat cells, a CD4 positive human lymphoma cell line (Schneider et al., 1977). […] However, here we show the specific effect of TEAD reduction on granzyme gene expression and degranulation that result in the killing of cancer cells.
One thousand 4T1 cells were aggregated in 81-well agarose molds (Microtissues, #Z764019). […] Images were captured using the Olympus BX40 microscope, and DAB signal per sphere was quantified in imageJ and normalized to the number of nuclei. […]

For the substance VT107, the “secreted IL4 levels” value in assay [1] is listed as “reduced”. Further, in assay [1], the “secreted IL12” value is on record as “no effect”. Also, the “cleaved caspase-3 in 4T1 cells” value was “No change” with 4T1 spheres (VT107-treated T-cells or macrophages alone); “elevated signal” in the assay with 4T1 spheres (iTEAD-treated macrophages and T-cells, spheres in matrix). Further, the “cleaved caspase-3 IHC staining of 4T1 spheres” value in the assay on 4T1 spheres (co-culture with T-cells treated with 1 μM VT107, 72 hours) is reported as “increased”. The “number of 4T1 cells per sphere” value in the assay with 4T1 spheres (co-culture with T-cells treated with 1 μM VT107, 72 hours vs vehicle) is reported as “significantly reduced”.
